Laboratory results taken from ChEMBL document CHEMBL1201862, “PubChem BioAssay data set” (2004).
Blank lines part the entries; values can stand above or below the molecule they belong to. Active and inactive are the calls of the source.

Assays:
[1] = molecular target: T1, Microphthalmia-associated transcription factor (Homo sapiens, UniProt O75030); experiment: TRPM1 promoter luciferase signal decrease, dose response, MITF inhibitor project, cell-based, SK-MEL-5, cherry-picked, set 3 (AID 493073); type: functional
T1 sequence (O75030 whole entry): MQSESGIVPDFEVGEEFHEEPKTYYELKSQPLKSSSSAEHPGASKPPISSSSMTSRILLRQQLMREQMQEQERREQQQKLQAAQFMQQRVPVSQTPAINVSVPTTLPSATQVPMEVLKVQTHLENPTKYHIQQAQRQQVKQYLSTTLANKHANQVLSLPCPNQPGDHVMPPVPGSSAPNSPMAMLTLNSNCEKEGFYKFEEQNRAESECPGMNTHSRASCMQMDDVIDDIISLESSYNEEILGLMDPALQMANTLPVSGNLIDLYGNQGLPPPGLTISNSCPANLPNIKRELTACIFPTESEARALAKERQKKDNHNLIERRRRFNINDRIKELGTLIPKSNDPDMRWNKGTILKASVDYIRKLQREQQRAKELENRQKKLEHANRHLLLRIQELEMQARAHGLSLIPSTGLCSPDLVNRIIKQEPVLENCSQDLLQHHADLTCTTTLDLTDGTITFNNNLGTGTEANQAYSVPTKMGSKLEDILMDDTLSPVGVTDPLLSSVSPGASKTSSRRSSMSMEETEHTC

[2] = molecular target: T2, High affinity choline transporter 1 (Homo sapiens, UniProt Q9GZV3); experiment: CHT inhibitors, dose response, cell-based, 10-point CRC, membrane potential dye (AID 588401); type: functional;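 also: membrane potential dye fluorescence of choline-evoked depolarization via CHT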
T2 sequence (Q9GZV3 whole entry): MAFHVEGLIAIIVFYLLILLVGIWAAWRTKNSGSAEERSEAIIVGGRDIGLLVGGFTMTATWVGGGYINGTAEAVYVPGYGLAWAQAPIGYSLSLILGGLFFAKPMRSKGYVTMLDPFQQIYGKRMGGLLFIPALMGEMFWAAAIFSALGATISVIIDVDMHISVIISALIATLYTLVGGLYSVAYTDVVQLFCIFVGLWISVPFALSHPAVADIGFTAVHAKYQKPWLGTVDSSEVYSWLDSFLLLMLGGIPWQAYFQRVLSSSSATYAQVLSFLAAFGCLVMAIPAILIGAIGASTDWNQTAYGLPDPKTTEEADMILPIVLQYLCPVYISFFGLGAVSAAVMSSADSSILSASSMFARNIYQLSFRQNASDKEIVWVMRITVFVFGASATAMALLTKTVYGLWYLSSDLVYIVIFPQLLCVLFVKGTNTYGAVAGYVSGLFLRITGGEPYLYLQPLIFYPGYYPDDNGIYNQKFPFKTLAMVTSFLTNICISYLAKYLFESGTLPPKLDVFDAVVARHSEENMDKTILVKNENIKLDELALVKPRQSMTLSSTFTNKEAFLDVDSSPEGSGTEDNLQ

[3] = molecular target: T2, High affinity choline transporter 1; experiment: CHT inhibitors, dose response, cell-based, 5-point CRC, membrane potential dye (AID 504840); type: functional
[4] = inhibitors of intracellular T. cruzi replication, confirmation, NIH3T3 host cells, beta-gal luminescence (AID 2044); type: functional, cell-based;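 also: intracellular parasites grown in NIH/3T3 mouse fibroblasts as host cells; luminescent beta-galactosidase reporter signal from transgenic T. cruzi replicating inside host cells; inhibitors lower the luminescence signal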
[5] = cytotoxicity toward NIH3T3 fibroblasts, dose response, counter-screen, cell-based, ATP luminescence, mouse fibroblasts (AID 2010); type: functional;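 also: cells exposed to compound for about 90 hours before reading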
[6] = molecular target: T3, Short transient receptor potential channel 4 (Mus musculus, UniProt Q9QUQ5); experiment: mouse TRPC4 channel activators, dose response, cell-based, HEK293 TRPC4/mu-opioid, Fluo-4 calcium (AID 434937); type: functional
T3 sequence (Q9QUQ5 whole entry): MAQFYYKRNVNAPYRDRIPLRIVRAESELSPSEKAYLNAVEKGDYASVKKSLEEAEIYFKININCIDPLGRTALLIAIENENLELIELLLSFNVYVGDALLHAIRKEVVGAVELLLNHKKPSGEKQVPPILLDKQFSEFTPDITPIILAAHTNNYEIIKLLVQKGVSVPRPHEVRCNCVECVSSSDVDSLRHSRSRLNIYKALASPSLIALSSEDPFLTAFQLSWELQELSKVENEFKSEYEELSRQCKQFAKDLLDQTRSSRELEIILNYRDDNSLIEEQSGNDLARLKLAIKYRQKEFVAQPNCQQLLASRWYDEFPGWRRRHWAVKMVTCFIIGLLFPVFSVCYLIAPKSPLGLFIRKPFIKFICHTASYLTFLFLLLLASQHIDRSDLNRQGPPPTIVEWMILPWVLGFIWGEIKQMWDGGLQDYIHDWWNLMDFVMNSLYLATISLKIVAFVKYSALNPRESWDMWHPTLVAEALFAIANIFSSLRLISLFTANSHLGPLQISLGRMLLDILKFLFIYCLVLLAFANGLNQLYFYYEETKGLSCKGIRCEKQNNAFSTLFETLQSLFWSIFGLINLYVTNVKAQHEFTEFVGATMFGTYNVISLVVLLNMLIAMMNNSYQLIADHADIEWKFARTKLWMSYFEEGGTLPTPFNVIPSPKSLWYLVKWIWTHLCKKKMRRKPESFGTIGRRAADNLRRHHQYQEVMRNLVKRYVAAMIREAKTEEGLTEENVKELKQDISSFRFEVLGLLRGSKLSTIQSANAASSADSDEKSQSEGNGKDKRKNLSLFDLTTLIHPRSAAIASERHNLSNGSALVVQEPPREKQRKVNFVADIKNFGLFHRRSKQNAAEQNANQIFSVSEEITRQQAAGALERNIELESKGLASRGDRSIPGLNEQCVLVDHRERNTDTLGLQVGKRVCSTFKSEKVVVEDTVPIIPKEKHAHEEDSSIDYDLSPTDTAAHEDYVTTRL

INS1 = experiment: beta cell apoptosis inhibitors, cytokine rescue, dose response, luminescence, retest (AID 449756); type: functional, cell-based; conditions: Rattus norvegicus;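 also: cell death triggered by IL-1 beta plus TNF-alpha plus IFN-gamma mixture; protective hits raise ATP signal compared with cytokine alone wells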
[7] = tested on: Streptococcus sp. 'group A'; experiment: growth inhibition of control SK(-) GAS strain, dose response, counter-screen for streptokinase expression inhibitor project, luminescence, kanamycin, BacTiterGlo, confirmation (AID 1900); type: functional, organism-based
[8] = C. albicans growth with fluconazole, confirmation, fluorescence, retest (AID 2467); type: functional, cell-based
Streptococcus = experiment: Group A Streptococcus viability loss, dose response, counter-screen for streptokinase expression inhibitor project, luminescence, BacTiterGlo (AID 1915); type: functional, organism-based;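 also: potency for reduction of bacterial viability or growth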
[9] = molecular target: Heat shock protein HSP 90-alpha (Homo sapiens, UniProt P07900); type: functional, organism-based
[10] = Luminescence Cell-Based Dose Confirmation HTS to Identify Inhibitors of Platelet Dense Granule Release. [Related pubchem assays: 1663 (Primary HTS), 1678 (Summary of Project)]; type: functional
[11] = NIH-3T3 fibroblast cytotoxicity, dose response, cytotoxicity control, cell-based, fluorescence, Alamar Blue, secondary assay (AID 2327); type: functional;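 also: NIH-3T3 mouse fibroblasts cultured with fluconazole at 8 µg/mL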
[12] = molecular target: Luciferin 4-monooxygenase (Photinus pyralis, UniProt P08659); experiment: firefly luciferase enzyme inhibitors, dose response, biochemical, luminescence (AID 1891)
Sequence of Luciferin 4-monooxygenase (P08659 whole entry): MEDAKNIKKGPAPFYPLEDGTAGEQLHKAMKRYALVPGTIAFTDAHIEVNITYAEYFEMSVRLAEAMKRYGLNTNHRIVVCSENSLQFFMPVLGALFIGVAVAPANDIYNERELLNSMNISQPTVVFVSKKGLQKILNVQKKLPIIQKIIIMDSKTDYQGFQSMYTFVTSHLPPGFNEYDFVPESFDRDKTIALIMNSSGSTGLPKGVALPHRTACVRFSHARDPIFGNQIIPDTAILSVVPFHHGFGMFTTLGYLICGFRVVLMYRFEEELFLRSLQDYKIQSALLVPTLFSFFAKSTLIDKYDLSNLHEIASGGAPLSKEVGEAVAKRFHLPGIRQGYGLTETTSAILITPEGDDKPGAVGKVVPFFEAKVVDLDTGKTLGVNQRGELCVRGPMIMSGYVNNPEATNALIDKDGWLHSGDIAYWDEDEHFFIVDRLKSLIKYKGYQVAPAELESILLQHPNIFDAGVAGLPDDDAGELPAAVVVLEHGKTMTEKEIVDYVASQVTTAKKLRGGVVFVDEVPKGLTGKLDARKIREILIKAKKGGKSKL

HEK293 = experiment: inhibitors of LMP1-driven NF-kB reporter, dose response, cell-based, HEK293, luciferase, cherry-pick (AID 588343); type: functional; conditions: Homo sapiens
[13] = molecular target: T4, Heat shock factor protein 1 (Mus musculus, UniProt P38532); experiment: inhibition of MG132-induced HSE-luciferase signal, confirmation, cell-based, NIH3T3, luminescence, dose retest (AID 2382); type: functional;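 also: NIH3T3 fibroblasts with HSF1-driven luciferase reporter stressed by proteasome inhibitor MG132; luminescence from HSF1-driven luciferase expression after 8 hours of MG132 stress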
T4 sequence (P38532 whole entry): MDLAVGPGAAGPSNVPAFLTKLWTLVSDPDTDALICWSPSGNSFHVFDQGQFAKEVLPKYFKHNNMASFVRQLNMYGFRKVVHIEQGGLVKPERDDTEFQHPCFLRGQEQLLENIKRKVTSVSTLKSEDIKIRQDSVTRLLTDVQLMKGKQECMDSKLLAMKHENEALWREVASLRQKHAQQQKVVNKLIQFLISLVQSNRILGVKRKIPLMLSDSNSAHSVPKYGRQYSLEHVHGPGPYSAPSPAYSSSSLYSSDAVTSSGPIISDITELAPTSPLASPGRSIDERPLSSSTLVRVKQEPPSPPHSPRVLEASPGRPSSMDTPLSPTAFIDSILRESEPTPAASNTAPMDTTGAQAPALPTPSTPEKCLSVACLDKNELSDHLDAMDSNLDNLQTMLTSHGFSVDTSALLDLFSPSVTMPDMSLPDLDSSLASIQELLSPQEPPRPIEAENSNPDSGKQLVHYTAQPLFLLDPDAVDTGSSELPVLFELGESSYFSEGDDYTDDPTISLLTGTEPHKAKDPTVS

[14] = molecular target: T3, Short transient receptor potential channel 4; experiment: mouse TRPC4 channel inhibitors, dose response, cell-based, HEK293 TRPC4/mu-opioid, Fluo-4 calcium (AID 434942); type: functional;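 also: potency of inhibitors blocking the TRPC4 calcium response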
[15] = molecular target: T5, Calpain-2 catalytic subunit (Sus scrofa, UniProt P43367); experiment: pig calpain II inhibitor potency, dose response, biochemical, fluorogenic peptide substrate (AID 1420); type: functional
T5 sequence (P43367 whole entry): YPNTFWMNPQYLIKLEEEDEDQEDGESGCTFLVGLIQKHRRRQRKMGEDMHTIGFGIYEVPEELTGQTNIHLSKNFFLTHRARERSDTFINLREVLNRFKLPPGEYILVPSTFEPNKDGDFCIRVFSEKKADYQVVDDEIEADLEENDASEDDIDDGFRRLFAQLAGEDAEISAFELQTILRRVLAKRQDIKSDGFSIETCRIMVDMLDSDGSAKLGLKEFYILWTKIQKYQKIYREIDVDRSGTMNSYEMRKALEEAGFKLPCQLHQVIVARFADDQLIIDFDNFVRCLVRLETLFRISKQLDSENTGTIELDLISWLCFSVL

[16] = molecular target: T6, Voltage-gated N-type calcium channel alpha-1B subunit/Amyloid beta A4 precursor protein-binding family A member 1 (Homo sapiens, UniProt Q00975+Q02410); type: protein assay
T6 sequence (Q00975 whole entry): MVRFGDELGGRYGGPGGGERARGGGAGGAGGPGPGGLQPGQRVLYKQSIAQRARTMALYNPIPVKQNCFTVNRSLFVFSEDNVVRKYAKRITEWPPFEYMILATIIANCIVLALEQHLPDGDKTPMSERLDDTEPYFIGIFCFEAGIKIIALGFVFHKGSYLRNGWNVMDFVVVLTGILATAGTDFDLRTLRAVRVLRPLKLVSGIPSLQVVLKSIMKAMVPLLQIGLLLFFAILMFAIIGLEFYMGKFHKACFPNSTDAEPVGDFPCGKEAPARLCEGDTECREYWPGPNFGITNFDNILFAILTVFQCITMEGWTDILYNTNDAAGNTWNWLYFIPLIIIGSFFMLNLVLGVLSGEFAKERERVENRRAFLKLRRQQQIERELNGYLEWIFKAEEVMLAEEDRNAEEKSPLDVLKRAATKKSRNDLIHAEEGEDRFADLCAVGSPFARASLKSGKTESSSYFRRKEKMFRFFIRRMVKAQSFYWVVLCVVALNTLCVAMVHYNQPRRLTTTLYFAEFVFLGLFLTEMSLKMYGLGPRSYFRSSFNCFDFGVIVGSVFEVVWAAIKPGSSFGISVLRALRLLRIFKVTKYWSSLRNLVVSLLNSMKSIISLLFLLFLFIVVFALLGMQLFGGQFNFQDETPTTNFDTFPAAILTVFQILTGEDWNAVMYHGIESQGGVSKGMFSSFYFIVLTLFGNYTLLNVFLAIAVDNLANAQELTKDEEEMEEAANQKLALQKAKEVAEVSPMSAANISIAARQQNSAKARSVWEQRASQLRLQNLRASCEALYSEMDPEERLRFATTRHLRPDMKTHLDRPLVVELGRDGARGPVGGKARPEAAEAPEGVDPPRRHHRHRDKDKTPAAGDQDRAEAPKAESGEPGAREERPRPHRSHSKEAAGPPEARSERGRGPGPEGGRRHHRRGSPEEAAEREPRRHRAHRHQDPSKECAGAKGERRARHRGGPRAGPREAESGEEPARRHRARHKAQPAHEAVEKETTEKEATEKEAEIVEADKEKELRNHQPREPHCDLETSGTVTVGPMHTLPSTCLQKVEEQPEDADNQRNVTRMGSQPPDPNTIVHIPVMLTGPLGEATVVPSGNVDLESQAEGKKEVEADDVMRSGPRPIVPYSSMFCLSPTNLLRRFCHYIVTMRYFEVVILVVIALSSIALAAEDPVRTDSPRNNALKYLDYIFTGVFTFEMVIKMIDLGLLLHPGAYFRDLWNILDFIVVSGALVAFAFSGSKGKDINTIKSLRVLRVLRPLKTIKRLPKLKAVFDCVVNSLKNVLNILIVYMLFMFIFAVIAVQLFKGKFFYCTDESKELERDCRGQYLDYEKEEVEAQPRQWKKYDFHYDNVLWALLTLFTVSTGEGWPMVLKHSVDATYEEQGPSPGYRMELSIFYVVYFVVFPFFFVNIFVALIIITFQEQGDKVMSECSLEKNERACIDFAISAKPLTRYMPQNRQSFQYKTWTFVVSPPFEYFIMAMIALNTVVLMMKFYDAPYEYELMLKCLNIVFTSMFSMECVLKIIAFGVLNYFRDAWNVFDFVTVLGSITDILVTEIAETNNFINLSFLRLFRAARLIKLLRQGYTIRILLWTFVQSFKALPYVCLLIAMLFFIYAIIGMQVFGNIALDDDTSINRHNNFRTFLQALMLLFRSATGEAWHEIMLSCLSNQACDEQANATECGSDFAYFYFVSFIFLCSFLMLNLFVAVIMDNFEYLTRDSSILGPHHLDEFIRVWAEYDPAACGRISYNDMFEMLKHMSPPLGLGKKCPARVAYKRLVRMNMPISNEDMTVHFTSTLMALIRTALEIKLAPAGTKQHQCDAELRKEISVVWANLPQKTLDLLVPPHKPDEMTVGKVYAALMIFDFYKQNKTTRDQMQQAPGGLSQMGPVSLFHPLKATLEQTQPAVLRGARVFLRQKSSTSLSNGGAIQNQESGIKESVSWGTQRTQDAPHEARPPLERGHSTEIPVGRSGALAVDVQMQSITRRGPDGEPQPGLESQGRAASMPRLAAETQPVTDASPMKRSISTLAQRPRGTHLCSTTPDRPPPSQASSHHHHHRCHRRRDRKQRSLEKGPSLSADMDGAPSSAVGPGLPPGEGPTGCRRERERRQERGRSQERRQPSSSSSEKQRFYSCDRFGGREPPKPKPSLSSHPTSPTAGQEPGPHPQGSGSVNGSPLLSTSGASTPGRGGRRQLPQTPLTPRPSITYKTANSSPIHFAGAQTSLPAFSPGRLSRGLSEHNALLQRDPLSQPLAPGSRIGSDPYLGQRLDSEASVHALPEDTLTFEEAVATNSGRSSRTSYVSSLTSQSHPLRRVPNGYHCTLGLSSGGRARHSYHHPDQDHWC
T6 sequence (Q02410 whole entry): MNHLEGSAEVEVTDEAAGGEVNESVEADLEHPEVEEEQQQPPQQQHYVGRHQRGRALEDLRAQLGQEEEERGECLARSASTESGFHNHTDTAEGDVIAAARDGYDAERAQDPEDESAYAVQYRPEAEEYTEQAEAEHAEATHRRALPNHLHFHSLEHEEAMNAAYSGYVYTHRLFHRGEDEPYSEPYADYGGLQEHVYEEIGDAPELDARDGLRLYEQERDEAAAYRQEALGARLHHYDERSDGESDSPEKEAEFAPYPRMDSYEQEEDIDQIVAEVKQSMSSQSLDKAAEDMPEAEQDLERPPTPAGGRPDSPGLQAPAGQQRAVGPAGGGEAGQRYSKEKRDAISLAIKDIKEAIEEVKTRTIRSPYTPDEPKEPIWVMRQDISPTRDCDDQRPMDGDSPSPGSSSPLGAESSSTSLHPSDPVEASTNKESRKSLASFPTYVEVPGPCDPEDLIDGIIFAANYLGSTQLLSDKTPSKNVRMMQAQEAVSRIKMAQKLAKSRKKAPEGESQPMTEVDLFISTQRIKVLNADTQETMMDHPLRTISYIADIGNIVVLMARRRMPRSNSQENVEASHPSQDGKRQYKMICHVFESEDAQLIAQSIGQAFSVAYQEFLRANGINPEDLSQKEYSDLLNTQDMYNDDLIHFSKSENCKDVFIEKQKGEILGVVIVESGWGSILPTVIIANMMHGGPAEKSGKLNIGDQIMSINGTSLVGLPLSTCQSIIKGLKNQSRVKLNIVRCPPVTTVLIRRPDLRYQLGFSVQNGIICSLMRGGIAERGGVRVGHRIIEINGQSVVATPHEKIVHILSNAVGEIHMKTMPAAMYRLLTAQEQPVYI

[17] = Luminescence-based cell-based high throughput dose response assay to identify activators of the DAF-12 from the parasite S. stercoralis (ssDAF-12).; type: functional
[18] = molecular target: T6, Voltage-gated N-type calcium channel alpha-1B subunit/Amyloid beta A4 precursor protein-binding family A member 1; type: protein assay; remark: listed apart in the source
[19] = growth suppression of PTEN-null colon cells, dose response, cell-based, HCT116 PTEN knockout (AID 1047); type: functional;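 also: HCT116 colon tumor cells with PTEN knocked out; cells exposed to compound for 60 hours before readout; potency for loss of cell viability measured by luminescence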
[20] = growth suppression of beta-catenin-knockout colon cells, dose response, cell-based, HCT116, human colon tumor (AID 1045); type: functional;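 also: HCT116 colon tumor cells with beta catenin knocked out; cells exposed to compound for 60 hours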
Cytochrome P450 2D6 = Cytochrome P450 2D6 (Homo sapiens, UniProt P10635);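 also: CYP2D6 member of a cytochrome P450 panel assay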
Sequence of Cytochrome P450 2D6 (P10635 whole entry): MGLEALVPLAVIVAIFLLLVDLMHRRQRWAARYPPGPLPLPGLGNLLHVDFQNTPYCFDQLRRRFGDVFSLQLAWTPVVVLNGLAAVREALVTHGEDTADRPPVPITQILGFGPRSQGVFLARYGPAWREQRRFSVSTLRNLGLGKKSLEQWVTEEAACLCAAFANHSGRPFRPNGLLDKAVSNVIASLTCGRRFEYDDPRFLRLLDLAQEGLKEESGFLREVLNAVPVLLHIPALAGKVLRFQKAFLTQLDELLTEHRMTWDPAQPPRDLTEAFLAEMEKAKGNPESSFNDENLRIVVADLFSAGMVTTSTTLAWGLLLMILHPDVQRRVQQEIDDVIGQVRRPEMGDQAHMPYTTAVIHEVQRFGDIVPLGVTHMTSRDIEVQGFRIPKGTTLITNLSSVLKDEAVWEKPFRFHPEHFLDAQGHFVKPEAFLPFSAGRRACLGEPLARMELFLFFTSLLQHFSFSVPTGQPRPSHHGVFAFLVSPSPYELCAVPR

AC50 [1]: 1.78 µM (active)
Structure (SMILES): N#Cc1cc2c(nc1SC1CC(=O)N(c3ccccc3)C1=O)CCC2 (stereo not given)

IC50 [2]: 8.43 µM (active)
IC50 [3]: 9.39 µM (active)
Structure (SMILES): Cc1cccc(N2CCN(C(=O)CCCn3c(=O)[nH]c4ccsc4c3=O)CC2C)c1 (stereo not given)

Structure (SMILES): CCc1ccc(CN(C)CCc2ccccn2)cc1
EC50 (cells): 0.035 µM (active)
EC50 [4]: < 0.1 µM (active)
EC50 [5]: > 30 µM (not active)

Structure (SMILES): COc1ccc(S(=O)(=O)N2CCCCC2)cc1NC(=O)c1ccc([N+](=O)[O-])o1
AC50 [1]: 9.14 µM (active)
EC50 [4]: 4.55 µM (active)
EC50 [5]: 11.9 µM (active)

Structure (SMILES): CCn1c2ccccc2c2cc(CNCCCN3CCOCC3)ccc21
EC50 (cells): 0.013 µM (active)
EC50 [4]: < 0.1 µM (active)
EC50 [5]: > 60 µM (not active)

EC50 [6]: 0.0173 µM (active)
Structure (SMILES): CN(C)C(CN=C(S)Nc1ccc(F)cc1)c1cccnc1 (stereo not given)

Structure (SMILES): O=C(NC(c1ccc(Cl)cc1)c1cc(Cl)c2cccnc2c1O)c1cccnc1 (stereo not given)
AC50 (INS1): 0.951 µM (active)
EC50 [7]: 0.73 µM (active)
EC50 [8]: 0.66 µM (active)
EC50 (Streptococcus): 1.36 µM (active)
AC50 [9]: 24.2 µM (active)
EC50 [10]: > 112 µM (not active)
EC50 [11]: 8.56 µM (inconclusive)
EC50 [4]: 0.253 µM (active)
EC50 [12]: > 112 µM (not active)
EC50 [5]: 6.88 µM (active)
AC50 (HEK293): 2 µM (active)

IC50 [2]: 4.01 µM (active)
IC50 [3]: 8.33 µM (active)
Structure (SMILES): O=c1c2ccccc2[nH]c(=S)n1CCN1CCCC1

Structure (SMILES): CN1CCC(CNC(=O)Nc2ccccc2)(c2ccccc2)CC1
EC50 [6]: 1.33 µM (active)

Structure (SMILES): COc1ccc2nc(N(CCN(C)C)C(=O)c3ccc4c(c3)OCCO4)sc2c1
EC50 (cells): 0.095 µM (active)
EC50 [4]: < 0.1 µM (active)
EC50 [5]: > 60 µM (not active)

IC50 [2]: 0.0829 µM (active)
IC50 [3]: 0.158 µM (active)
Structure (SMILES): N#Cc1c(N)nc(SCc2ccccn2)c(C#N)c1-c1cccs1

EC50 [13]: > 195 µM (not active)
EC50 [14]: 1.06 µM (active)
EC50 [6]: 2.99 µM (active)
Structure (SMILES): CCc1ccc(C(CNc2nc(C(F)(F)F)nc3ccccc23)N(C)C)cc1 (stereo not given)

EC50 [14]: 1.68 µM (active)
EC50 [6]: 10.6 µM (active)
Structure (SMILES): CCN=C(S)N1CCC(C(O)(c2ccccc2)c2ccccc2)CC1

Structure (SMILES): COC1CCC(OC2CC(C3(C)CCC4(CC(O)C(C)C(C(C)/C=C(\C)C(=O)C(C)CC(C)C(=O)O)O4)O3)OC3(OC(C4OC(O)(CO)C(C)CC4C)CC3C)C2C)OC1C (stereo not given)
AC50 [9]: 5.72 µM (active)

Structure (SMILES): COc1cccc(/N=c2\oc3ccc(OC)cc3cc2-c2nc3ccccc3[nH]2)c1
IC50 [15]: 7.91 µM (active)
IC50 [16]: > 50 µM (inactive)
IC50 [17]: > 67.5 µM (inactive)
IC50 [18]: 41 µM (active)

Structure (SMILES): COc1cccc(Nc2nc(NCC3CCCO3)c3ccccc3n2)c1 (stereo not given)
EC50 (cells): 0.443 µM (active)
EC50 [19]: 7.57 µM (active)
EC50 [20]: 7.05 µM (active)
EC50 [4]: < 0.1 µM (active)
EC50 [5]: > 30 µM (not active)

IC50 [2]: 1.12 µM (active)
IC50 [3]: 0.0214 µM (active)
AC50 (Cytochrome P450 2D6): 10 µM (inconclusive)
Structure (SMILES): Cc1nccn1C[C@@H]1CCc2c(c3ccccc3n2C)C1=O [(S)-ONDANSETRON]
